Results: ChEMBL document CHEMBL5724696, “Autophagy assay results for EUbOPEN Chemogenomics Library” (2024)
Several values for one entry are separate records, joined by “and”; a condition that tells them apart may be missing. Equal values may be shown once.

How the values were obtained:
Format in all cases: functional, Homo sapiens
U2OS [1] = assay: (§1) Here: values are normalized to the negative (DMSO; defined as 0% autophagy induction) and positive (250nM Torin1; mTOR inhibitor; defined as maximal inducer of autophagy = 100%) control compounds and represented as % of autophagy induction. […] The impact of autophagy induction on cells is complex and depends on the affected target. As such, the magnitude of a phenotype may not be equally mirrored in the %-value of autophagy induction and vice versa. The dynamics of the induction may indicate the mode of activation: e.g. activation via phosphorylation or a signaling cascade may occur fast, while activation via transcription factors may take considerably longer. […] Of note, treatment concentrations may be sub-optimal for specific compounds, leading to false negative annotations.; conditions: Culturing Media DMEM, 1 % Penicillin/Streptomycin, 10% Fetal bovin serum Add-On: No, Screening Media Control DMEM, Screening Media Samples DMEM
U2OS [2] = assay: as §1; conditions: Culturing Media DMEM, 1 % Penicillin/Streptomycin, 10% Fetal bovin serum Add-On: No, Screening Media Control DMEM, Screening Media Samples DMEM; remark: listed apart in the source
TERT-RPE1 = assay: as §1; conditions: Culturing Media DMEM/F12 (1:1), 1 % Penicillin/Streptomycin, 10% Fetal bovin serum Add-On: No, Screening Media Control DMEM/F12 (1:1), Screening Media Samples DMEM/F12 (1:1)
[3] = Compound Concentration 0.5 uM, Timepoint 12 hours
[4] = Compound Concentration 0.5 uM, Timepoint 24 hours
[5] = Compound Concentration 0.5 uM, Timepoint 36 hours
[6] = Compound Concentration 0.5 uM, Timepoint 60 hours
[7] = Compound Concentration 2 uM, Timepoint 12 hours
[8] = Compound Concentration 2 uM, Timepoint 24 hours
[9] = Compound Concentration 2 uM, Timepoint 36 hours
[10] = Compound Concentration 2 uM, Timepoint 60 hours
[11] = Compound Concentration 10 uM, Timepoint 12 hours
[12] = Compound Concentration 10 uM, Timepoint 24 hours
[13] = Compound Concentration 10 uM, Timepoint 36 hours
[14] = Compound Concentration 10 uM, Timepoint 60 hours

Compound	autophagy induction (U2OS [1]; [3]) [%]	autophagy induction (U2OS [1]; [4]) [%]	autophagy induction (U2OS [1]; [5]) [%]	autophagy induction (U2OS [1]; [6]) [%]	autophagy induction (U2OS [1]; [7]) [%]	autophagy induction (U2OS [1]; [8]) [%]	autophagy induction (U2OS [1]; [9]) [%]	autophagy induction (U2OS [1]; [10]) [%]	autophagy induction (U2OS [1]; [11]) [%]	autophagy induction (U2OS [1]; [12]) [%]	autophagy induction (U2OS [1]; [13]) [%]	autophagy induction (U2OS [1]; [14]) [%]	autophagy induction (U2OS [2]; [3]) [%]	autophagy induction (U2OS [2]; [4]) [%]	autophagy induction (U2OS [2]; [5]) [%]	autophagy induction (U2OS [2]; [6]) [%]	autophagy induction (U2OS [2]; [7]) [%]	autophagy induction (U2OS [2]; [8]) [%]	autophagy induction (U2OS [2]; [9]) [%]	autophagy induction (U2OS [2]; [10]) [%]	further results
Cc1c(F)cccc1NC(=O)Nc1ccc(Cl)c(S(=O)(=O)[C@H]2CCCNC2)c1O [DANIRIXIN]	-10.8402	-17.1359	-12.7926	-5.9905	-6.206	-10.5833	-10.8283	-13.8786	-11.164	-5.925	-8.152	-8.851	3.972	-2.873	-59.8201	-1.181	-1.664	-3.195	-60.7356	-1.731	autophagy induction (U2OS [2]; [11]): -5.705%; autophagy induction (U2OS [2]; [12]): -2.005%; autophagy induction (U2OS [2]; [13]): -60.1624%; autophagy induction (U2OS [2]; [14]): -1.218%; autophagy induction (TERT-RPE1; Compound Concentration 0.5 uM, Timepoint 12 hours, 12 h, 0.5 µM): -1.988% and 1.2715%; autophagy induction (TERT-RPE1; Compound Concentration 0.5 uM, Timepoint 24 hours, 24 h, 0.5 µM): -2.9066% and -1.048%; autophagy induction (TERT-RPE1; Compound Concentration 0.5 uM, Timepoint 36 hours, 36 h, 0.5 µM): -6.399% and -2.355%; autophagy induction (TERT-RPE1; Compound Concentration 0.5 uM, Timepoint 60 hours, 60 h, 0.5 µM): -5.802% and -6.526%; autophagy induction (TERT-RPE1; Compound Concentration 2 uM, Timepoint 12 hours, 12 h, 2 µM): -2.5% and 0.287%; autophagy induction (TERT-RPE1; Compound Concentration 2 uM, Timepoint 24 hours, 24 h, 2 µM): -3.213% and -0.8718%; autophagy induction (TERT-RPE1; Compound Concentration 2 uM, Timepoint 36 hours, 36 h, 2 µM): -5.9285% and 0.3135%; autophagy induction (TERT-RPE1; Compound Concentration 2 uM, Timepoint 60 hours, 60 h, 2 µM): -6.839% and -1.623%; autophagy induction (TERT-RPE1; Compound Concentration 10 uM, Timepoint 12 hours, 12 h, 10 µM): 1.595% and 0.8887%; autophagy induction (TERT-RPE1; Compound Concentration 10 uM, Timepoint 24 hours, 24 h, 10 µM): 3.736% and 2.2115%; autophagy induction (TERT-RPE1; Compound Concentration 10 uM, Timepoint 36 hours, 36 h, 10 µM): 4.117% and 5.758%; autophagy induction (TERT-RPE1; Compound Concentration 10 uM, Timepoint 60 hours, 60 h, 10 µM): 6.176% and 5.1403%
C[C@]1(C(=O)N(CCCC(=O)O)Cc2cccc(Cl)c2)CCN1C(=O)c1csc2ccccc12 [GLPG-0974]	-10.0746	-10.8247	-4.098	-4.538	5.378	3.105	6.198	1.696	3.852	1.348	0.8582	-7.082	2.89	1.055	-0.2915	0.8021	5.8948	0.1613	-0.9761	-1.363	autophagy induction (U2OS [2]; [11]): 4.366%; autophagy induction (U2OS [2]; [12]): 0.7536%; autophagy induction (U2OS [2]; [13]): -0.03596%; autophagy induction (U2OS [2]; [14]): 0.5874%; autophagy induction (TERT-RPE1; [3]): -9.58%; autophagy induction (TERT-RPE1; [4]): -12.1708%; autophagy induction (TERT-RPE1; [5]): -12.5657%; autophagy induction (TERT-RPE1; [6]): -12.3909%; autophagy induction (TERT-RPE1; [7]): -4.812%; autophagy induction (TERT-RPE1; [8]): -8.05%; autophagy induction (TERT-RPE1; [9]): -10.5216%; autophagy induction (TERT-RPE1; [10]): -11.4009%; autophagy induction (TERT-RPE1; [11]): -6.234%; autophagy induction (TERT-RPE1; [12]): -7.969%; autophagy induction (TERT-RPE1; [13]): -9.743%; autophagy induction (TERT-RPE1; [14]): -14.0611%
